Reference: the SangsterLogP compilation

Test: method code SF-AS, from DOI: 10.1111/j.2042-7158.1992.tb05470.x, PMID: 1357140
Conditions: pH 7.4

- logD: 0.96
SMILES: CC(C)NC(=S)NS(=O)(=O)c1cnccc1NC1CCCCCC1
